Experimental data: publication PMC7191905, “Synthesis and biological evaluation of new 3(2H)-pyridazinone derivatives as non-toxic anti-proliferative compounds against human colon carcinoma HCT116 cells” (Journal of Enzyme Inhibition and Medicinal Chemistry, 2020)
Values after ≈ are worked out from the molar mass of the structure shown. Values joined by “and” are separate entries in the source; they are usually repeats but may differ in a detail not shown here. Identical values can stand only once. Like-named read-outs stand apart in the source and are kept apart here.

What was measured:
HCT116 cells [1] = assay: MTT viability of HCT116 cells in basal conditions; assay type: cell-based, human; conditions: for IC50: Homo sapiens
Procedure: (§1) HCT116 cell line (ATCC® CCL-247™) was cultured in DMEM (Euroclone) supplemented with 10% (v/v) heat-inactivated foetal bovine serum and 1.2% (v/v) penicillin G/streptomycin in 75 cm^2 tissue culture flask (n=5 individual culture flasks for each condition) as previously reported with or without serotonin treatment.
(§2) In the same condition, the kynurenic acid (KA) extracellular level was determined through a validated high performance liquid chromatography (HPLC)-fluorimetric method. To assess the cytotoxicity of synthesised compounds (VIa–o), a viability assay was performed on 96 microwell plates, using 3-(4,5-dimethylthiazol-2-yl)-2,5-diphenyltetrazolium bromide (MTT) test. Cells were incubated with compounds (10 µg/mL) for 24 h. An aliquot of 10 µL of MTT (5 mg/mL) was added to each well and incubated for 3 h. The viability of HCT116 cell line was evaluated both in basal conditions and after challenging with serotonin (5-HT) at 1 ng/mL. The anti-proliferative effects were compared to that induced by daunorubicin (0.1–20 µg/mL), used as reference drug.
Considering the effects induced by all compounds on HCT116 viability and KA production, compounds VIc, VIe and VIk were further assayed in order to deepen our knowledge about their anti-proliferative effects, in basal conditions. Specifically, HCT116 cells were stimulated with the aforementioned compounds, in a wider concentration range (0.1–20 µg/mL), with respect to the initial test. Additionally, the anti-proliferative effects induced by these compounds were compared with that of daunorubicin, used as anti-tumoral reference drug in the same concentration range.

[2] = tested on: kynurenic acid (KA) release from colon cancer HCT116 cells; assay: Extracellular kynurenic acid (KA) level of 5-HT-stimulated HCT116 cells (HPLC-fluorimetric); assay type: cell-based, human; conditions: for Effect on 5-HT-induced KA depletion: compounds 10 µg/mL, 5-HT 1 ng/mL, vs 5-HT group
Procedure: as §1, §2
Furthermore, compounds were assayed for evaluating modulatory effects on the extracellular level of KA, one of the two main kynurenine metabolites. Kynurenic acid was reported to be produced in multiple tissues, including brain and peripheral organs, although pharmacokinetic studies excluded any possibility of the peripheral pool to cross blood-brain barrier. In the brain, the kynurenine-derived kynurenic acid was described as a reliable marker of neuroprotection[28]^,[29], whereas it seems to be involved in inflammatory response at the peripheral level. Kynurenic acid was also described as an anti-proliferative factor towards colon, renal, and glioma cells. Specifically, this marker was considered as a potential chemopreventive agent against colon cancer[32]^,[33]. […] They were able in potentiating 5-HT-induced KA depletion, as well.

HCT116 cells [3] = assay: Wound healing paradigm (spontaneous migration of HCT116 cells); assay type: cell-based, human; conditions: compounds at their IC50 (VIe 3.09 µg/mL, VIk 2.73 µg/mL), 48 h after lesion of cell monolayer
Procedure: The detailed protocol related to wound healing experimental model was described in our previous article.
Finally, considering their potencies in reducing HCT116 cell viability, compounds VIe and VIk were further studied in order to evaluate their effects on the spontaneous migration of HCT116 cells, through the wound healing paradigm. In this experiment, HCT116 cells were treated with compounds VIe and VIk at their respective IC50 values. The spontaneous migration of HCT116 cells was monitored in the 48 h following the experimental lesion of cell monolayer. The null effects on sponstaneous migration (Figure 6) rule out any involvement of the tested compounds in altering the invasion capacity of human colon cancer cells.

[4] = HCT-116, basal conditions, concentration range 0.1–20 µg/mL, MTT test, read-out: IC50 (HCT116 cell viability)

SMILES	melting point	also measured
NCCc1c[nH]c2ccc(O)cc12 [Compound 5-HT, serotonin, reference compound]		Effect of 5-HT on HCT116 cell viability (HCT116 cells [1]; 5-HT 10 pg/mL – 1 µg/mL, MTT test): increased in a concentration-dependent manner
COc1ccc(-c2ccc(=O)n(CC(=O)NN=Cc3ccccc3)n2)cc1F [VIa, N’-benzylidene-2-(3-(3-fluoro-4-methoxyphenyl)-6-oxopyridazin-1(6H)-yl)acetohydrazide]	132 °C	Effect on 5-HT-induced KA depletion [2]: failed to prevent the inhibition of KA level
COc1ccc(-c2ccc(=O)n(CC(=O)NN=Cc3ccc(F)cc3)n2)cc1F [VIb, N’-(4-fluorobenzylidene)-2–(3-(3-fluoro-4-methoxyphenyl)-6-oxopyridazin-1(6H)-yl)acetohydrazide]	238 °C	Effect on 5-HT-induced KA depletion [2]: failed to prevent the inhibition of KA level
COc1ccc(-c2ccc(=O)n(CC(=O)NN=Cc3ccc(C(F)(F)F)cc3)n2)cc1F [VIc, N’-(4-trifluoromethylbenzylidene)-2–(3-(3-fluoro-4-methoxyphenyl)-6-oxopyridazin-1(6H)-yl)acetohydrazide]	252 °C	KA level compared to basal condition (CTR group) ([2]; compound 10 µg/mL, 5-HT-stimulated HCT116 cells): even higher compared to basal condition; Effect on 5-HT-induced KA depletion [2]: able to blunt 5-HT-induced KA depletion; IC50 (HCT116 cells [1]; [4]): 15 µg/mL (≈ 33.5 µM); IC50 fold higher compared to daunorubicin (HCT116 cells [1]; basal conditions, HCT116 viability): at least 10 fold
COc1ccc(-c2ccc(=O)n(CC(=O)NN=Cc3ccccc3F)n2)cc1F [VId, N’-(2-fluorobenzylidene)-2–(3-(3-fluoro-4-methoxyphenyl)-6-oxopyridazin-1(6H)-yl)acetohydrazide]	222 °C and 224 °C	
COc1ccc(-c2ccc(=O)n(CC(=O)NN=Cc3ccccc3C)n2)cc1F [VIe, N’-(2-methylbenzylidene)-2–(3-(3-fluoro-4-methoxyphenyl)-6-oxopyridazin-1(6H)-yl)acetohydrazide]	210 °C	IC50 (HCT116 cells [1]; [4]): 3.09 µg/mL (≈ 7.83 µM); Effect on spontaneous migration of HCT116 cells (HCT116 cells [3]): null effects
COc1ccc(-c2ccc(=O)n(CC(=O)NN=Cc3ccccc3OC)n2)cc1F [VIf, N’-(2-methoxybenzylidene)-2–(3-(3-fluoro-4-methoxyphenyl)-6-oxopyridazin-1(6H)-yl)acetohydrazide]	214 °C	
COc1ccc(-c2ccc(=O)n(CC(=O)NN=Cc3ccc(C)cc3)n2)cc1F [VIg, N’-(4-methylbenzylidene)-2–(3-(3-fluoro-4-methoxyphenyl)-6-oxopyridazin-1(6H)-yl)acetohydrazide]	220 °C	
COc1ccc(C=NNC(=O)Cn2nc(-c3ccc(OC)c(F)c3)ccc2=O)cc1 [VIh, N’-(4-methoxybenzylidene)-2–(3-(3-fluoro-4-methoxyphenyl)-6-oxopyridazin-1(6H)-yl)acetohydrazide]	207 °C	
COc1ccc(-c2ccc(=O)n(CC(=O)NN=Cc3ccc([N+](=O)[O-])cc3)n2)cc1F [VIi, N’-(4-nitrobenzylidene)-2–(3-(3-fluoro-4-methoxyphenyl)-6-oxopyridazin-1(6H)-yl)acetohydrazide]	265 °C	
COc1ccc(-c2ccc(=O)n(CC(=O)NN=Cc3ccc(C(C)C)cc3)n2)cc1F [VIj, N’-(4-isopropylbenzylidene)-2–(3-(3-fluoro-4-methoxyphenyl)-6-oxopyridazin-1(6H)-yl)acetohydrazide]	164 °C	
COc1ccc(-c2ccc(=O)n(CC(=O)NN=Cc3ccccc3Br)n2)cc1F [VIk, N’-(2-bromobenzylidene)-2–(3-(3-fluoro-4-methoxyphenyl)-6-oxopyridazin-1(6H)-yl)acetohydrazide]	189 °C	IC50 (HCT116 cells [1]; [4]): 2.73 µg/mL (≈ 5.94 µM); Effect on spontaneous migration of HCT116 cells (HCT116 cells [3]): null effects
COc1ccc(-c2ccc(=O)n(CC(=O)NN=Cc3ccc(Br)cc3)n2)cc1F [VIm, N’-(4-bromobenzylidene)-2–(3-(3-fluoro-4-methoxyphenyl)-6-oxopyridazin-1(6H)-yl)acetohydrazide]	256 °C	
COc1ccc(-c2ccc(=O)n(CC(=O)NN=Cc3ccc(O)cc3)n2)cc1F [VIn, N’-(4-hydroxybenzylidene)-2–(3-(3-fluoro-4-methoxyphenyl)-6-oxopyridazin-1(6H)-yl)acetohydrazide]	251 °C	
COc1ccc(-c2ccc(=O)n(CC(=O)NN=Cc3ccc(Cl)cc3Cl)n2)cc1F [VIo, N’-(2,4-dichlorobenzylidene)-2–(3-(3-fluoro-4-methoxyphenyl)-6-oxopyridazin-1(6H)-yl)acetohydrazide]	229 °C	
COc1cccc2c1C(=O)c1c(O)c3c(c(O)c1C2=O)C[C@@](O)(C(C)=O)C[C@@H]3O[C@H]1C[C@H](N)[C@H](O)[C@H](C)O1 [daunorubicin, reference compound]		IC50 (HCT116 cells [1]; HCT-116, read-out: IC50 (HCT116 cell viability)): 1.39 µg/mL (≈ 2.63 µM)
